Test results reported in patent US8119619B2, “Pregnane steroids and their use in the treatment of CNS disorders” (Umecrine AB, priority 2001, dated 2012).
“And” between values parts separate entries of the source, which are not always exact repeats. Equal values may be shown once. “Also recorded” adds a separate entry of the source.

Experiments:
GABA-A receptor = experiment: Cortical tissue homogenate study: radioactive chloride uptake into vesicles through the GABA-A receptor; assay type: biochemical, rat; settings: for Mean % (SEM) chloride uptake relative to only 10 uM GABA: 10 μM GABA alone = 100%, 3alpha-hydroxy-5alpha-pregnan-20-one 0-3000 nM + 10 μM GABA + 30 μM interacting steroid, reference steroid tested without blocker; for Within group change from 0 nM 3alpha-hydroxy-5alpha-pregnan-20-one: doses of 3alpha-hydroxy-5alpha-pregnan-20-one: 1=0, 2=50, 3=100, 4=150, 5=200, 6=1000, 7=3000 nM, + 10 μM GABA + 30 μM steroid
Method: In these studies cortical tissue from mature male rats was homogenized in buffer. As a result of this procedure a suspension of small vesicles was formed, said vesicles having GABA-A receptors on their surface. When radioactive chloride is added to this suspension, a certain amount will enter the vesicles. This amount is related to how much open the GABA-A receptor is. Drugs that open the receptor will increase the amount of chloride in the vesicles in relation to the dosage of the drug. Similarly, drugs that close the GABA-A receptor will decrease the amount of chloride moving into the vesicles. The labeled chloride outside of the vesicles was washed away and separated from the chloride inside. The amount of radioactively labeled chloride inside the vesicles was thereafter measured in a fluid scintillator and a curve drawn.
At each experiment, a control of increasing dosages of GABA was used to ensure that the tissue sample is working properly. A second control was used to enhance the effect of 10 μM of GABA by adding increasing dosages 3alpha-hydroxy-5alpha-pregnan-20-one.
The effect is shown as a percentage change from the uptake with only 10 μM GABA and no 3 alpha-hydroxy-5alpha-pregnan-20-one in this case given the measure 100%.
In all cases 3alpha-hydroxy-5alpha-pregnan-20-one is given in increasing dosages 1=0, 2=50, 3=100, 4=150, 5=200, 6=1000, 7=3000 nM+10 μM GABA+30 μM of interacting Steroid. H=high, S=significant, NS=non significant. Statistical testing made with repeated measures ANOVA followed post hoc with lest significant difference test.

rats = experiment: Morris water maze learning model; assay type: in vivo, rat; settings: for Learning to find the hidden platform (latency), substance given alone: i.v. daily for 6 days, four trials per day, UC1011 20 mg/kg or 3alpha-hydroxy-5alpha-pregnan-20-one 2 mg/kg, UC1011 vs 3alpha group p<0.05 day 3-6
Excerpt: Animal studies using the Morris water-maze model have been performed. In the Morris water-maze model, the learning capacity of the test animals can be observed. The test animal, usually a rat, is placed in a container with water, having a platform at one location. This platform is slightly under the surface of the water, and the rat must swim until it finds the platform. In following test sessions the rat will learn were the platform is by looking at markings on the wall of the room. It is known, that the learning process is negatively influenced by the administration of CNS depressing 3alpha-hydroxy-pregnan-steroids. (Johansson L M, Birzniece V, Lindblad C., Olsson T. and Bäckström T (2002) Allopregnanolone inhibits learning in the Morris water maze. Brain Res 934, 125-131).
The results (FIG. 3) indicate, that this negative effect is removed or alleviated through the administration of a compound according to the present invention. The experiments were conducted using 3alpha-hydroxy-pregnan-20-one as learning disturbing substance (CAS no. 516-54-1, Table 1) and 3beta,20beta-dihydroxy-5alpha-pregnane, UC1011, (CAS 516-53-9, Table 2 and 3) as blocking substance. Rats (n=46) where injected (i.v) daily with 3beta,20beta-dihydroxy-5alpha-pregnane, UC1011 20 mg/kg (n=14), 3alpha-hydroxy-5alpha-pregnan-20-one 2 mg/kg (n=14), 3alpha-hydroxy-5alpha-pregnan-20-one+3beta,20beta-dihydroxy-5alpha-pregnane, UC1011 2:20 mg/kg (n=14), or vehicle (n=4) Animals were given four swim trials daily with maximal swimming time 120 second for each trial. The rats started to swim 8 minute after the 3alpha-hydroxy-5alpha-pregnan-20-one injection for 6 days. The performance of rats was monitored with a video camera and data was analyzed with analysis of variance (ANOVA) followed by post hoc test.

| Compound | Mean % (SEM) chloride uptake relative to only 10 uM GABA (GABA-A receptor) | Within group change from 0 nM 3alpha-hydroxy-5alpha-pregnan-20-one (GABA-A receptor) | Effect on the increase in chloride uptake induced by 3alpha-hydroxy-5alpha-pregnan-20-one (FIG. 2) (GABA-A receptor; 30 μM blocker, 10 μM GABA, increasing 3alpha-hydroxy-5alpha-pregnan-20-one) | Learning to find the hidden platform (latency), blocker given with 3alpha-hydroxy-5alpha-pregnan-20-one (rats; 3alpha-hydroxy-5alpha-pregnan-20-one + UC1011 2:20 mg/kg i.v. daily for 6 days, compared with the 3alpha-hydroxy-5alpha-pregnan-20-one group, p<0.05 day 4-6, 20 mg/kg) | Learning to find the hidden platform (latency), substance given alone (rats) | Latency to find the platform (rats; 2 mg/kg i.v. daily, after 6 days with practice, max swimming time 120 second) | Learning to find the hidden platform (latency), substance given alone (rats; listed as 3alpha-hydroxy-5alpha-preganane-20-one) |
| --- | --- | --- | --- | --- | --- | --- | --- |
| CC(=O)[C@H]1CC[C@H]2[C@@H]3CC[C@H]4C[C@@H](O)CC[C@]4(C)[C@H]3CC[C@]12C [UC1010, 3beta-hydroxy-5alpha-pregnan-20-one] | 104.4(13) % | Dos 7 = S H; also recorded: The rest = NS | – | – | – | – | – |
| CC(O)C1CCC2C3CCC4CC(O)CCC4(C)C3CCC12C (stereo not drawn) [UC1011, 3beta,20beta-dihydroxy-5alpha-pregnane] | 81.9(19) % | All dosages = NS | blocked | lower latency time; also recorded: start to learn significantly on the 4th day of training | learned to find the platform as quickly as the control group; also recorded: learn to find the platform on the tired day of training | – | – |
| CC(=O)[C@H]1CC[C@H]2[C@@H]3CC[C@H]4C[C@@H](O)CC[C@]4(C)[C@H]3C(=O)C[C@]12C [UC1017, 3beta hydroxy-5alpha-pregnan-11,20-dione] | – | All dosages = NS | – | – | – | – | – |
| CC(=O)[C@H]1CC[C@H]2[C@@H]3CC[C@H]4C[C@H](O)CC[C@]4(C)[C@H]3CC[C@]12C [3alpha-hydroxy-5alpha-pregnan-20-one, reference compound] | 167.7% and 167.7(13) % | Dose 3, 5, 6, 7 = S | – | – | inhibits spatial learning | above 80 seconds | do not learn significantly within six days |
| C[C@]12CC[C@H](O)C[C@H]1CC[C@@H]1[C@@H]2CC[C@]2(C)[C@@H](C(=O)CO)CC[C@@H]12 [UC1015, 3beta,21-dihydroxy-5beta-pregnan-20-one] | 102.7(22) % | All dosages = NS | – | – | – | – | – |
| CC(=O)[C@H]1CC[C@H]2[C@@H]3CC[C@@H]4C[C@@H](O)CC[C@]4(C)[C@H]3CC[C@]12C [UC1014, 3beta-hydroxy-5beta-pregnan 20-one] | 92.9(22) % | All dosages NS | – | – | – | – | – |
| 3beta-hydroxy-5alpha-pregnan-20-one-sulfate, sodium salt [UC1016] | 109.8(19) % | All dosages = NS | – | – | – | – | – |
| C[C@H](O)[C@H]1CC[C@H]2[C@@H]3CC[C@@H]4C[C@@H](O)CC[C@]4(C)[C@H]3CC[C@]12C [UC1013, 3beta,20alpha-dihydroxy-5beta-pregnane] | 84.2(22) % | All dosages = NS | – | – | – | – | – |
| CC(=O)[C@H]1CC[C@H]2[C@@H]3CC=C4C[C@@H](OS(=O)(=O)[O-])CC[C@]4(C)[C@H]3CC[C@]12C.[Na+] [UC1018, 3beta-hydroxy-delta5-pregnen-20-one-sulfate, sodium salt] | 64.7(23) % | All dosages = NS | – | – | – | – | – |
